# Results taken from the supplement of paper PMC10307832.
# How the values were obtained:
# Assay in all cases: relative viability (nuclei count vs DMSO), 5 days (fraction); higher = more cells survive
# Sorafenib + Lapatinib = compound: CNC(=O)c1cc(Oc2ccc(NC(=O)Nc3ccc(Cl)c(C(F)(F)F)c3)cc2)ccn1 [Sorafenib] + CS(=O)(=O)CCNCc1ccc(-c2ccc3ncnc(Nc4ccc(OCc5cccc(F)c5)c(Cl)c4)c3c2)o1 [Lapatinib] (partner 2 µM)
# Method in brief: (§1)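 One day after seeding in 1536-well plates, lung cancer cell lines were dosed by pin tool. Dosing was either single-drug or a fixed anchor-drug dose plus five library-drug doses (not always all listed) in √10 steps. After 5 days, nuclei were stained in one fix-and-stain step and counted on 4× images, and relative viability is the nuclei count of treated wells over that of vehicle wells, given as the median of duplicate plates.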
# Sorafenib + Vorinostat = compound: CNC(=O)c1cc(Oc2ccc(NC(=O)Nc3ccc(Cl)c(C(F)(F)F)c3)cc2)ccn1 [Sorafenib] + O=C(CCCCCCC(=O)Nc1ccccc1)NO [Vorinostat] (partner 1 µM)
# Method in brief: as §1
# Sorafenib + Crizotinib = compound: CNC(=O)c1cc(Oc2ccc(NC(=O)Nc3ccc(Cl)c(C(F)(F)F)c3)cc2)ccn1 [Sorafenib] + C[C@@H](Oc1cc(-c2cnn(C3CCNCC3)c2)cnc1N)c1c(Cl)ccc(F)c1Cl [Crizotinib] (partner 1 µM)
# Method in brief: as §1
# Sorafenib + Luminespib = compound: CNC(=O)c1cc(Oc2ccc(NC(=O)Nc3ccc(Cl)c(C(F)(F)F)c3)cc2)ccn1 [Sorafenib] + CCNC(=O)c1noc(-c2cc(C(C)C)c(O)cc2O)c1-c1ccc(CN2CCOCC2)cc1 [Luminespib] (partner 0.01 µM)
# Method in brief: as §1
# Sorafenib = compound: CNC(=O)c1cc(Oc2ccc(NC(=O)Nc3ccc(Cl)c(C(F)(F)F)c3)cc2)ccn1 [Sorafenib]
# Method in brief: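 Lung cancer cell lines in 1536-well plates were exposed by pinning to five library-drug doses (not always all listed) √10 apart, following an overnight hold at 37 °C. MetaXpress counted Hoechst-stained nuclei from 4× images taken after 5 days without medium change. Viability is the median ratio of treated-well to vehicle-well nuclei across plates. Plates required control CV below 25% and at least one doubling.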
Cell Line,relative viability (Sorafenib + Lapatinib; first compound 0.08 µM),relative viability (Sorafenib + Lapatinib; first compound 0.253 µM),relative viability (Sorafenib + Lapatinib; first compound 2.53 µM),relative viability (Sorafenib + Lapatinib; first compound 8 µM),relative viability (Sorafenib + Vorinostat; first compound 0.08 µM),relative viability (Sorafenib + Vorinostat; first compound 0.253 µM),relative viability (Sorafenib + Vorinostat; first compound 2.53 µM),relative viability (Sorafenib + Vorinostat; first compound 8 µM),relative viability (Sorafenib + Crizotinib; first compound 0.08 µM),relative viability (Sorafenib + Crizotinib; first compound 0.253 µM),relative viability (Sorafenib + Crizotinib; first compound 2.53 µM),relative viability (Sorafenib + Crizotinib; first compound 8 µM),relative viability (Sorafenib + Luminespib; first compound 0.08 µM),relative viability (Sorafenib + Luminespib; first compound 2.53 µM),relative viability (Sorafenib + Luminespib; first compound 8 µM),relative viability (Sorafenib; 0.08 µM),relative viability (Sorafenib; 0.253 µM),relative viability (Sorafenib; 2.53 µM),relative viability (Sorafenib; 8 µM),relative viability (Sorafenib + Luminespib; first compound 0.253 µM)
NCI-H23,1.23,1.07,1.02,0.908,0.635,0.384,0.678,0.547,0.566,0.427,0.689,0.427,0.225,0.228,0.213,1,0.875,0.974,0.704,
NCI-H322M,0.597,0.639,0.727,0.665,1.02,0.886,1.02,1.17,0.945,0.848,0.894,0.859,1.03,1.24,1.06,1.14,0.918,1.3,1.27,1.03
NCI-H358,0.453,0.45,0.558,0.519,0.666,0.712,0.594,0.208,0.56,0.72,0.713,0.292,0.242,0.295,0.239,1.04,1.05,1.01,0.688,0.285
NCI-H460,1.02,0.868,0.915,0.807,0.748,0.582,0.611,0.363,1.02,0.777,0.918,0.502,0.0329,0.0236,0.0147,1.01,0.918,1,0.654,0.0278
NCI-H520,0.92,0.71,0.919,0.402,0.673,0.597,0.606,0.27,0.912,0.695,0.67,0.581,0.21,0.232,0.218,0.93,0.823,,0.75,0.216
NCI-H596,1.07,1.11,1.52,0.995,0.748,0.547,0.929,0.717,0.963,0.982,1.06,0.957,0.889,0.977,0.911,0.993,1.03,1.18,0.969,1.04
NCI-H647,1.18,0.868,1.19,0.426,0.473,0.453,0.257,0.0463,1.05,0.972,0.867,0.395,0.182,0.148,0.15,1.05,0.763,0.853,0.492,0.0896
NCI-H650,0.986,0.855,0.946,0.611,0.855,0.257,0.371,0.449,0.777,0.563,0.735,0.595,0.809,0.605,0.677,1.08,0.82,0.83,0.78,0.639
NCI-H661,0.595,0.509,0.446,0.507,0.818,0.757,0.796,0.441,0.944,0.969,0.921,0.742,0.931,0.822,0.293,,1.02,0.97,0.713,0.928
NCI-H727,0.777,0.597,0.771,0.486,1.38,1.11,1.23,1.25,0.979,0.797,0.706,0.357,0.528,0.501,0.221,1.15,0.768,0.88,0.691,0.344
NCI-H838,1.1,0.961,1.16,0.823,,0.798,0.882,0.503,0.931,0.946,0.991,0.903,0.346,0.402,0.243,1.04,0.996,1.17,0.994,0.33
NCI-H1355,1.02,0.96,1.11,1.03,0.752,0.563,0.662,0.505,1.16,1.04,1.04,1.11,0.717,0.779,0.62,1.02,0.921,0.958,0.788,0.687
NCI-H1437,0.865,0.654,0.773,0.346,0.782,0.783,0.705,0.307,0.941,0.827,0.844,0.496,1.1,1.17,,0.999,0.872,0.945,0.583,1.06
NCI-H1650,0.96,0.776,0.787,0.224,0.505,0.567,0.633,0.424,0.961,1.1,1.01,,0.183,0.193,0.209,1.17,0.909,1.31,0.534,0.183
NCI-H1651,0.912,0.696,0.849,0.365,0.504,0.461,0.6,0.542,0.863,0.866,0.845,0.877,0.965,0.958,0.319,1.07,0.958,0.985,,0.778
NCI-H1666,0.594,0.674,0.739,0.598,1.01,0.873,1.05,0.966,1.01,0.899,,0.487,,0.951,0.872,0.992,0.913,0.985,0.844,1.03
